According to US7829331B2, “Use of urea-adjuvated polypeptides for diagnosis, prophylaxis and treatment” (priority 2002, dated 2010):

How the values were obtained:
rabbit = assay: Immunisation of a rabbit with urea-adjuvated BZLF1 polypeptide, serum tested in the immunoblot; assay type: in vivo; conditions: intramuscular, 8M urea
Procedure: In order to test the suitability of urea-adjuvated BZLF-1 polypeptide, 30 μg of BZLF1 polypeptide in 8M urea was adjuvated with Hunters Titermax as specified by the manufacturer (Sigma) and administered intramuscularly to a rabbit. The animal was re-immunised with the same immunogen 4 and 8 week as after the basic immunisation. After a further 3 weeks, blood was taken from the animal and the serum obtained therefrom was tested in different dilutions (1:2000; 1:10000 and 1:50000) in the immunoblot for the presence of BZLF1 specific antibodies. For this purpose BZLF1 polypeptide produced recombinantly in E. coli in various concentrations (20 ng, 100 ng and 500 ng) was separated in a 12.5% SDS gel and the proteins were then transferred onto nitrocellulose. After the protein transfer the still-free protein binding sites on the nitrocellulose were saturated by incubating with a 5% solution of skimmed milk powder in TBS (500 mM NaCl, 25 mM Tris pH 7.5), shaking slightly. The Blot was then washed four times with TTBS for at least 10 min before it was incubated for 1 to 12 hours with the corresponding dilution of the rabbit serum in TBS. […]

PBMC [1] = assay: Influence of urea on the vitality of PBMC (Trypan blue counting); assay type: cell-based
Procedure: In order to test the influence of urea on the cell vitality, PBMC, as described in Example 2, were purified from the heparinised whole blood of 3 healthy donors ([…]) and respectively 1×10^6 cells in four replicates in T-cell medium (RPMI 1640 with 5% human serum, 2 mM glutamine and 100 U/ml penicillin/100 μg/ml streptomycin (all components from PanSystems, Aidenbach)) was mixed with increasing concentrations of urea (0, 0.05, 0.1, 0.2, 0.3, 0.4, 0.8 or 1.6 mol/liter) and incubated in wells of a 48-well microtitre plate for 17 hours in an incubator with humidified atmosphere and 5% CO2 gassing at 37° C. An 8M urea stock solution which was mixed with 2M NaCl and 2 mM DTE was used for these experiments. The cells were then resuspended in the cultivation formulation by repeatedly pipetting the medium on and off and the total number of cells and the ratio of the living to dead cells was determined using a Neubauer “improved” counting chamber after staining with a Trypan blue solution (0.5% w/v).

PBMC [2] = assay: IFN-γ ELIspot of PBMC incubated with urea; assay type: cell-based, human; conditions: 24 hours; for IFN-γ secretion from PBMCs: donor one
Procedure: Furthermore, it should be clarified by ELIspot analyses whether urea in populations of purified PBMCs triggers the secretion of cytokines, especially IFN-γ. For this purpose, 96-well nitrocellulose-coated microtitre plates, as described in detail in Example 2, were coated with a monoclonal anti-human IFN-γ antibody (Hölzl, Cologne) (5 μg/ml in PBS) and incubated overnight at 4° C. The antibody solution was pipetted off and the plates were washed four times using 200 μl PBS/formulation in each case. In a following step non-specific binding sites were blocked by adding 200 μl of blocking medium in each case (RPMI with 10% FCS) during a one-hour incubation at 37° C.
PBMC of a healthy donor ([…]) were taken up in a concentration of respectively 2×10^5 purified PBMC/150 μL in T-cell medium containing different urea concentrations (0, 0.05, 0.1, 0.2, 0.3, 0.4, 0.8, and 1.6 mol/liter) (5 replicates each) and the stimulation formulations were incubated for 24 hours in an incubator with a humidified atmosphere with 5% CO2 gassing at 37° C. An 8M urea stock solution which was mixed with 2M NaCl and 2 mM DTE was used for these experiments. The cell suspension was then drawn off and any cells still adhering were removed by washing six times (in each case 200 μl PBS with 0.1% Tween 20, 3 min incubation with washing buffer in each case). The secondary biotinylated antibody (1 μg/ml in PBS, 100 μl/formulation in each case) was then added; the plates were incubated for 2 hours at RT, then washed (6 times, 200 μl PBS/formulation in each case) and incubated for 1 hour with a streptavidin alkaline phosphatase (AP) conjugate (1 μg/ml in PBS; 100 μl/formulation in each case; Hölzl, Cologne). After a last washing step (6 times 200 μl PBS/formulation in each case), the colour reaction took place by adding the enzyme substrate NBT/BCIP (Boehringer, Mannheim). For this purpose a staining solution was prepared [200 μl NBT/BCIP-stock solution to 10 ml staining buffer (0.1 M tris-buffer, pH 9.5 with 0.05 M MgCl2, 0.1 M NaCl)] and 100 μl/formulation was used in each case.
After 10 min the calorimetric reaction was stopped by washing the plates with deionised water (Biosys 2000, BioSys, Karben).

With `NC(N)=O` [urea] the “toxicity of the urea contained in the injection solution for the experimental animal” value (rabbit) was “non-toxic”, the “number of dead cells” value (PBMC [1]) was “significantly increased number of dead cells” and the Living/dead (PBMC [1]; donor one, urea 0.05 mol/liter, 17 hours) was 2.2. It also gave a Living/dead (PBMC [1]; donor one, urea 0.1 mol/liter, 17 hours) of 55, a Living/dead (PBMC [1]; donor one, urea 0.2 mol/liter, 17 hours) of 3.6 and a Living/dead (PBMC [1]; donor one, urea 0.3 mol/liter, 17 hours) of 1.8. The Living/dead (PBMC [1]; donor one, urea 0.4 mol/liter, 17 hours) was 0.2, the Living/dead (PBMC [1]; donor one, urea 0.8 mol/liter, 17 hours) was 0.04 and the Living/dead (PBMC [1]; donor one, urea 1.6 mol/liter, 17 hours, 0 = exclusively dead cells) was 0. It also gave a Living/dead (PBMC [1]; donor three, urea 0.05 mol/liter, 17 hours) of 11.7, a Living/dead (PBMC [1]; donor three, urea 0.1 mol/liter, 17 hours) of 41.3 and a Living/dead (PBMC [1]; donor three, urea 0.2 mol/liter, 17 hours) of 30.2. The Living/dead (PBMC [1]; donor three, urea 0.3 mol/liter, 17 hours) was 9, the Living/dead (PBMC [1]; donor three, urea 0.4 mol/liter, 17 hours) was 0.2 and the Living/dead (PBMC [1]; donor three, urea 0.8 mol/liter, 17 hours) was 0.02. It also gave a Living/dead (PBMC [1]; donor three, urea 1.6 mol/liter, 17 hours, 0 = exclusively dead cells) of 0, a Living/dead (PBMC [1]; donor two, urea 0.05 mol/liter, 17 hours) of 15.9 and a Living/dead (PBMC [1]; donor two, urea 0.1 mol/liter, 17 hours) of 1.7. The Living/dead (PBMC [1]; donor two, urea 0.2 mol/liter, 17 hours) was 6.6, the Living/dead (PBMC [1]; donor two, urea 0.4 mol/liter, 17 hours) was 1 and the Living/dead (PBMC [1]; donor two, urea 0.8 mol/liter, 17 hours) was 0.1. The Living/dead (PBMC [1]; donor two, urea 1.6 mol/liter, 17 hours) was 0.06, the “dead versus living cells in the PBMC cultures” value (PBMC [1]; from a urea concentration of 0.4 mol/liter, 17 hours, regardless of the donor) was “more dead than living cells” and the “ratio of living to dead cells compared to the untreated cells” value (PBMC [1]; urea 0 to 0.2 mol/liter, 17 hours) was “no significant reduction”. The “total number of cells (cytolytic effect)” value (PBMC [1]; urea concentrations above 0.3 mol/liter, 17 hours) was “significant reduction in the total number of cells”, the “IFN-γ secretion from PBMCs” value (PBMC [2]; urea 0.05 mol/liter) was 26.2 Spots/2 × 10^6 cells and the “IFN-γ secretion from PBMCs” value (PBMC [2]; urea 0.1 mol/liter) was 29.6 Spots/2 × 10^6 cells. For the same molecule, the “IFN-γ secretion from PBMCs” value (PBMC [2]; urea 0.2 mol/liter) was 26.4 Spots/2 × 10^6 cells, the “IFN-γ secretion from PBMCs” value (PBMC [2]; urea 0.3 mol/liter) was 11.0 Spots/2 × 10^6 cells and the “IFN-γ secretion from PBMCs” value (PBMC [2]; urea 0.4 mol/liter) was 18.2 Spots/2 × 10^6 cells. The “IFN-γ secretion from PBMCs” value (PBMC [2]; urea 0.8 mol/liter) was 14.6 Spots/2 × 10^6 cells, the “IFN-γ secretion from PBMCs” value (PBMC [2]; urea 1.6 mol/liter) was 13.4 Spots/2 × 10^6 cells and the “release of IFN-γ from cultures of peripheral blood mononuclear cells” value (PBMC [2]; urea 0.05 to 1.6 mol/liter) was “no significantly increased release of IFN-γ”.
